Laboratory results as given in ChEMBL document CHEMBL4507273 (2021).

Columns and labels:
[1] = biological target: Histamine H2 receptor (Homo sapiens, UniProt P25021); details: Compound concentration 10.0 uM
[2] = biological target: T1, Protein kinase C epsilon type (Homo sapiens) (UniProt Q02156); experiment: PKCepsilon(h) Eurofins Kinase panel; details: Compound concentration 1.0 uM
T1 sequence (whole entry): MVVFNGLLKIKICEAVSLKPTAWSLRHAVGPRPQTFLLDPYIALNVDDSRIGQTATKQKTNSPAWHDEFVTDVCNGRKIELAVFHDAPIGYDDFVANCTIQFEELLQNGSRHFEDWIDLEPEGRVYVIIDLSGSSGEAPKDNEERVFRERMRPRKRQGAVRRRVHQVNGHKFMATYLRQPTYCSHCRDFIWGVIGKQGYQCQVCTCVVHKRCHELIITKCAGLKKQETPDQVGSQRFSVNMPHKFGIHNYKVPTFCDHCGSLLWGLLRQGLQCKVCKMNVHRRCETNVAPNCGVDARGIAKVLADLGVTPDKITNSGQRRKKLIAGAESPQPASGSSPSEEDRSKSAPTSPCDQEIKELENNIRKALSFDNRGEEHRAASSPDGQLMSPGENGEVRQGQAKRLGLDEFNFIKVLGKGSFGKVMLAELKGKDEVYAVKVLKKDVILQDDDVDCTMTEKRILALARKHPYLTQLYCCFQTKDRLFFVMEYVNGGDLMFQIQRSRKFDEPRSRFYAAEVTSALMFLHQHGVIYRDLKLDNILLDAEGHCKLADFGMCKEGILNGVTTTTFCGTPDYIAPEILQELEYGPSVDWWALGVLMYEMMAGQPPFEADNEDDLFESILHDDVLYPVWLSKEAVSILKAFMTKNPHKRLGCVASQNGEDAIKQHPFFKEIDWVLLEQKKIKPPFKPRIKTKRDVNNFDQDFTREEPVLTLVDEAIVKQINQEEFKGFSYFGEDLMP

[3] = biological target: Mu-type opioid receptor (Homo sapiens, UniProt P35372); details: Compound concentration 10.0 uM
[4] = biological target: D(4) dopamine receptor (Homo sapiens, UniProt P21917); experiment: GPCRScan assay: inhibition of D4; design: radioligand conc. used [nm] 0.6 – 1.7, parental cells Stable HEK
Chain of D(4) dopamine receptor (P21917 whole entry): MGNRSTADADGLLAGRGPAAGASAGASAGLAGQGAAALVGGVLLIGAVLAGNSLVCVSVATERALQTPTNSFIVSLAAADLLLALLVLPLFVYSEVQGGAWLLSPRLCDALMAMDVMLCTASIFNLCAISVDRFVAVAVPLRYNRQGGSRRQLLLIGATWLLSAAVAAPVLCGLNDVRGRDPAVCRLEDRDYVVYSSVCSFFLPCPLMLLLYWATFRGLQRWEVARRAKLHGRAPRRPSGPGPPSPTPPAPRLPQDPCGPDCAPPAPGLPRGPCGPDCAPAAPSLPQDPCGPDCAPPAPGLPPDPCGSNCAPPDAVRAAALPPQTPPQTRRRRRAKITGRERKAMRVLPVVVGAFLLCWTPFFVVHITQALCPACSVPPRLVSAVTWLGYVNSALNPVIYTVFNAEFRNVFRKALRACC

[5] = biological target: T2, 5-hydroxytryptamine receptor 1A (Homo sapiens) (UniProt P08908); details: Compound concentration 10.0 uM
T2 sequence (whole entry): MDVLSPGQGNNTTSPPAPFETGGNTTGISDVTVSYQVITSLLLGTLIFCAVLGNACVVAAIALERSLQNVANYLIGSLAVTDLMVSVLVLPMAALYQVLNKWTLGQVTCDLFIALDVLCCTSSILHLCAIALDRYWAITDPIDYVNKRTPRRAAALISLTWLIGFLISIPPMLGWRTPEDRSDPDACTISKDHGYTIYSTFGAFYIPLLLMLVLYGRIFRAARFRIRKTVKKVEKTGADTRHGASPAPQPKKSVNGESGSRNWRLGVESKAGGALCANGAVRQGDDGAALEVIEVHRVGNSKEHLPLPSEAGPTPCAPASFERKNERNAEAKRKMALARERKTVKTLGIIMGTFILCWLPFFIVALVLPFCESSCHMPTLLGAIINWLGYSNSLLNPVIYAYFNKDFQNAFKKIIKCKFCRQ

[6] = biological target: Casein kinase II subunit alpha' (Homo sapiens) (UniProt P19784); experiment: CK2alpha2(h) Eurofins Kinase panel; details: Compound concentration 1.0 uM
[7] = biological target: Tau-tubulin kinase 1 (Homo sapiens) (UniProt Q5TCY1); experiment: TTBK1(h) Eurofins Kinase panel; details: Compound concentration 1.0 uM
Chain of Tau-tubulin kinase 1 (Homo sapiens) (Q5TCY1 whole entry): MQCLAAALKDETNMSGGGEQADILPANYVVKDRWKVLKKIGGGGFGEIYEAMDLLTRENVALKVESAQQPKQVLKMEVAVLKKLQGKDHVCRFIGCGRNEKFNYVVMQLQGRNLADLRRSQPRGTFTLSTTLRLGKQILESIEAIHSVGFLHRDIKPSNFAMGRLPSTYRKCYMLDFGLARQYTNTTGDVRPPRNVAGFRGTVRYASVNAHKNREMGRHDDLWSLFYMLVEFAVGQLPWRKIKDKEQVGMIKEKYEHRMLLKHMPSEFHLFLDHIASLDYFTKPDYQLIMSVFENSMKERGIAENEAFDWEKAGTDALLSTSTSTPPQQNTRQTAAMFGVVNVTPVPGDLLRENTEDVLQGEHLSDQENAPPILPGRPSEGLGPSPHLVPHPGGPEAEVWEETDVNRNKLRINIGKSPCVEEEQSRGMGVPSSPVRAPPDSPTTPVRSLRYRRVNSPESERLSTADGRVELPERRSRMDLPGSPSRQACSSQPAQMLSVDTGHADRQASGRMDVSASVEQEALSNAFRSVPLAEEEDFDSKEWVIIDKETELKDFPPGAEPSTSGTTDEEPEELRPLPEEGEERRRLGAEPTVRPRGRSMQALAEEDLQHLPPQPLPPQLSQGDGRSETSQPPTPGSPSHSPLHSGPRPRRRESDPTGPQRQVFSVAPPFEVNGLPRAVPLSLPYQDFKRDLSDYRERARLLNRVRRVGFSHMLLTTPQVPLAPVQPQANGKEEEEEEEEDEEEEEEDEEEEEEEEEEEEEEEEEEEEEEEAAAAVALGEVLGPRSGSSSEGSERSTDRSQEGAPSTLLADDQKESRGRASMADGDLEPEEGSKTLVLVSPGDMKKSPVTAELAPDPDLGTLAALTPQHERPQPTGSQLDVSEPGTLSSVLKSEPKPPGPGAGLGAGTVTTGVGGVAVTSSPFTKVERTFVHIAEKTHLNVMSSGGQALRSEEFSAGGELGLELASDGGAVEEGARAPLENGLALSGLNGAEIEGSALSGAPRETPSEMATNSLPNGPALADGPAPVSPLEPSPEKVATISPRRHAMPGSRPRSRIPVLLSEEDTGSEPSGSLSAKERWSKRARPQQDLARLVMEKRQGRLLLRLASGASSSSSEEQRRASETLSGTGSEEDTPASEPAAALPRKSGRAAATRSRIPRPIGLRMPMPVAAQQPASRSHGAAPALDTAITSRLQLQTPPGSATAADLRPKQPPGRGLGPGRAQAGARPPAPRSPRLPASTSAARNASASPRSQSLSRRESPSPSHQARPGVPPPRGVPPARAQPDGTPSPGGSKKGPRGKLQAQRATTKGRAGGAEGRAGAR

[8] = biological target: D(1A) dopamine receptor (Homo sapiens, UniProt P21728); details: Compound concentration 10.0 uM
Chain of D(1A) dopamine receptor (P21728 whole entry): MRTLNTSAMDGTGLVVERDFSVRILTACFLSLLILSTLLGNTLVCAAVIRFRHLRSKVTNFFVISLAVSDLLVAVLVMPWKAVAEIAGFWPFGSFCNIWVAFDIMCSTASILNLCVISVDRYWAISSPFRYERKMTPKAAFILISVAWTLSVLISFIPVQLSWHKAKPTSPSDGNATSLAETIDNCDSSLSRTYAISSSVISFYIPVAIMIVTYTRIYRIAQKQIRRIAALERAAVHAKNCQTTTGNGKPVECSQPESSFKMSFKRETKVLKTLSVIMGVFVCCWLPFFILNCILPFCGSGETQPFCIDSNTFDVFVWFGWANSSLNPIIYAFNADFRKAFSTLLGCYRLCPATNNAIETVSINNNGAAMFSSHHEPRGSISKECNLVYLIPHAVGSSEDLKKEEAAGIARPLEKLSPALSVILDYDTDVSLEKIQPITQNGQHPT

[9] = biological target: Vascular endothelial growth factor receptor 1 (Homo sapiens) (UniProt P17948); experiment: Flt1(h) Eurofins Kinase panel; details: Compound concentration 1.0 uM
[10] = biological target: 5-hydroxytryptamine receptor 2A (Homo sapiens, UniProt P28223); details: Compound concentration 10.0 uM
Chain of 5-hydroxytryptamine receptor 2A (P28223 whole entry): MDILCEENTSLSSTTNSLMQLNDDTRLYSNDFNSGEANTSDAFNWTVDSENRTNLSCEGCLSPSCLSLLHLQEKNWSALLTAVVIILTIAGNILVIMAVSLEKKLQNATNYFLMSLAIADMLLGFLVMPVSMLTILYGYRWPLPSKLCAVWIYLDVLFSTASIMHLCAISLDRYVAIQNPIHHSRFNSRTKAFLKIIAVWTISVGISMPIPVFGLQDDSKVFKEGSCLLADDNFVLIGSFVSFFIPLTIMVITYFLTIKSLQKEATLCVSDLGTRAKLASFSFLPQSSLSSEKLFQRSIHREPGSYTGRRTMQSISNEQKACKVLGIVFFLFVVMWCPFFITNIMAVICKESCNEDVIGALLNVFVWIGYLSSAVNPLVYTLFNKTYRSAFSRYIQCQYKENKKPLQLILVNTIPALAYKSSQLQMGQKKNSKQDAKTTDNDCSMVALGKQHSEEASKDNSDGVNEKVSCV

[11] = biological target: Proto-oncogene tyrosine-protein kinase receptor Ret (Homo sapiens) (UniProt P07949); experiment: Ret(h) Eurofins Kinase panel; details: Compound concentration 1.0 uM
Chain of Proto-oncogene tyrosine-protein kinase receptor Ret (Homo sapiens) (P07949 whole entry): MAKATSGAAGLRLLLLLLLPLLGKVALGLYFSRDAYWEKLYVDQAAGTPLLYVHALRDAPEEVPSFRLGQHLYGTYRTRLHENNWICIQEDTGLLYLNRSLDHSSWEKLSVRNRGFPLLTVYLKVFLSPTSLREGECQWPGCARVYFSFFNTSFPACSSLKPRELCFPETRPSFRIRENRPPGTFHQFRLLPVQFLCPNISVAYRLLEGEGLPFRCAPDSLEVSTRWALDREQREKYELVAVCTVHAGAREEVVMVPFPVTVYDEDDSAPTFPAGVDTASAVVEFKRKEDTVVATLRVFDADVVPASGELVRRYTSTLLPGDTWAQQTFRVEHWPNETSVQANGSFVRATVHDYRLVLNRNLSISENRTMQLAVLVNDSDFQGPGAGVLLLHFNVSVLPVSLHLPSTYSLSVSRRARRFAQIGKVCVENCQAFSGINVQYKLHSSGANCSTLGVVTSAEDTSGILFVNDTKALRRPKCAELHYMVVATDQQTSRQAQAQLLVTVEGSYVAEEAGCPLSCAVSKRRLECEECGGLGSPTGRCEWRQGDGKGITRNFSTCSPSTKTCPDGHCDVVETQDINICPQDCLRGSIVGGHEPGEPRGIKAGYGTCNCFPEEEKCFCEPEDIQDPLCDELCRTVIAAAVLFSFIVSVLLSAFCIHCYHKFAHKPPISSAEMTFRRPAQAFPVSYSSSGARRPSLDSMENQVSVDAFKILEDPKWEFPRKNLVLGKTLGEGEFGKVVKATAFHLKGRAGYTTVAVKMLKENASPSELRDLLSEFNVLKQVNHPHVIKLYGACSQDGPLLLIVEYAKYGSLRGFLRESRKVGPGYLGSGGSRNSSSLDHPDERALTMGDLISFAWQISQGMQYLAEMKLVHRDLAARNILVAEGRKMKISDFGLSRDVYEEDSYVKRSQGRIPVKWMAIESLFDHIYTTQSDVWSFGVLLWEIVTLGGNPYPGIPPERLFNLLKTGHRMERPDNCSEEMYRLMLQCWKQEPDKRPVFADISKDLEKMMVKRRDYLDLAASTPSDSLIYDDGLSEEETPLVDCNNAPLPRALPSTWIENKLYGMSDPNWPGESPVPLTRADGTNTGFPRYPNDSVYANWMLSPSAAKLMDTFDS

[12] = biological target: T3, Alpha-1A adrenergic receptor (Homo sapiens) (UniProt P35348); details: Rattus norvegicus; Compound concentration 10.0 uM
T3 sequence (whole entry): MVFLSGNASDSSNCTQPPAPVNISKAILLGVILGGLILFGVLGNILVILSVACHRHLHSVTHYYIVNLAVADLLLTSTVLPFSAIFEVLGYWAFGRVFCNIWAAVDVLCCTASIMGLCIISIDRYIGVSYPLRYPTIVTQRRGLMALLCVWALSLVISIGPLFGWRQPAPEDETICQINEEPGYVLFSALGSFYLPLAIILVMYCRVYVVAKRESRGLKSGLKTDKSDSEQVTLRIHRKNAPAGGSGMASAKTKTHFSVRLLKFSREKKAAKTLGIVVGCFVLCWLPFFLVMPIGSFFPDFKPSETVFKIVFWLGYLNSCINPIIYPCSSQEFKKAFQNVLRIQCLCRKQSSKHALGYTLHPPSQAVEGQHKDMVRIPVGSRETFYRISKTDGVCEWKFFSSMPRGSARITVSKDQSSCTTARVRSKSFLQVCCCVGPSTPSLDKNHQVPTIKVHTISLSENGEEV

[13] = biological target: [Pyruvate dehydrogenase (acetyl-transferring)] kinase isozyme 2, mitochondrial (Homo sapiens) (UniProt Q15119); experiment: PDHK2(h) Eurofins Kinase panel; details: Compound concentration 1.0 uM
[14] = biological target: Eukaryotic translation initiation factor 2-alpha kinase 3 (Homo sapiens) (UniProt Q9NZJ5); experiment: PEK(h) Eurofins Kinase panel; details: Compound concentration 1.0 uM
Chain of Eukaryotic translation initiation factor 2-alpha kinase 3 (Homo sapiens) (Q9NZJ5 whole entry): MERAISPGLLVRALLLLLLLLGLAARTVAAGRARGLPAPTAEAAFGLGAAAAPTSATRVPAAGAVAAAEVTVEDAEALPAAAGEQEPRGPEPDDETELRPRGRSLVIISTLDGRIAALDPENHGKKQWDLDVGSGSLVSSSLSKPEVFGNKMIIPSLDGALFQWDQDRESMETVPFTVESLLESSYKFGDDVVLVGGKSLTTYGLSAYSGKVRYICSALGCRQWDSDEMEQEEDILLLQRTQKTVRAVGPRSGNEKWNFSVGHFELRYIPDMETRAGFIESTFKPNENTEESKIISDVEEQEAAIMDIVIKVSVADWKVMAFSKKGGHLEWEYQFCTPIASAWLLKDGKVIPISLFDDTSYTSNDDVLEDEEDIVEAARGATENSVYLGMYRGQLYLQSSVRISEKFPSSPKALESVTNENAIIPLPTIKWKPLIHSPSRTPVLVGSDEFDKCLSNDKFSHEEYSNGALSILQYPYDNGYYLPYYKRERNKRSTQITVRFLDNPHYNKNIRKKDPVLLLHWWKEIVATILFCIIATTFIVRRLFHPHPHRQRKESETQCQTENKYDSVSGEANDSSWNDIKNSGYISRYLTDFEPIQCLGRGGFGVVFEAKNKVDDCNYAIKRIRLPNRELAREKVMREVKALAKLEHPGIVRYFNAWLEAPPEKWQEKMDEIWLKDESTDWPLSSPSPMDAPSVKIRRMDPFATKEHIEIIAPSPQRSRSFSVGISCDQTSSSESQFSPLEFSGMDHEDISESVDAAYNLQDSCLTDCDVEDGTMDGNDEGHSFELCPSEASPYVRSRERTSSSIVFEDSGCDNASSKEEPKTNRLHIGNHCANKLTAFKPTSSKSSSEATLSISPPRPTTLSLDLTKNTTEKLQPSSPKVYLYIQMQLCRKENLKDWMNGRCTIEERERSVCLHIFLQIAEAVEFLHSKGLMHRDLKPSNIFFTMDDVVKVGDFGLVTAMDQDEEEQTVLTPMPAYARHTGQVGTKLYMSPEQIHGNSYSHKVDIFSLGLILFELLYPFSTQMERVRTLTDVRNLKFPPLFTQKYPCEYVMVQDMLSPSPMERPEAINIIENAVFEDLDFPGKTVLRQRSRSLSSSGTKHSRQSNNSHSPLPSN

[15] = biological target: Cyclin-dependent kinase 1/cyclin B (Homo sapiens) (UniProt P06493+P14635+Q8WWL7+O95067); experiment: CDK1/cyclinB(h) Eurofins Kinase panel; format: protein-complex assay; details: Compound concentration 1.0 uM
[16] = biological target: Dual specificity tyrosine-phosphorylation-regulated kinase 1A (Homo sapiens) (UniProt Q13627); experiment: DYRK1A(h) Eurofins Kinase panel; details: Compound concentration 1.0 uM
[17] = biological target: T4, Alpha-2C adrenergic receptor (Homo sapiens) (UniProt P18825); details: Compound concentration 10.0 uM
T4 sequence (whole entry): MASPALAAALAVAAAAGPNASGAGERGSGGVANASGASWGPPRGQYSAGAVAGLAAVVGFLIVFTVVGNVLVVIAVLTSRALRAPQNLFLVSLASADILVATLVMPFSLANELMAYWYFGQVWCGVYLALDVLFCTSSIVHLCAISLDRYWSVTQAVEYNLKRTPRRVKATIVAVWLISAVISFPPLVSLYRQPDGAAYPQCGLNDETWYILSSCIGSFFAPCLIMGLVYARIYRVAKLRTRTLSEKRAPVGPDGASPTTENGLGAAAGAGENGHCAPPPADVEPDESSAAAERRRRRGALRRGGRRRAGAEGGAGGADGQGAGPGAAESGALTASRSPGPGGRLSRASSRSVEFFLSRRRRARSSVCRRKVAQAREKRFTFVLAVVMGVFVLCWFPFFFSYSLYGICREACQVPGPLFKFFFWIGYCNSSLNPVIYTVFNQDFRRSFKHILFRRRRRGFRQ

## CNCc1ccccc1-c1csc([C@@H](C)Nc2nc(C)nc3cc(OC)c(OC)cc23)c1 [BAY-293]
[1]
  inhibition: 99%
[2]
  % residual kinase activity: 88%
[3]
  inhibition: 93%
[4]; read-out: Ki
  Ki: 2.66 µM
[4]; read-out: pKi (converted)
  Ki: 2.63 µM
[5]
  inhibition: 81%
[6]
  % residual kinase activity: 67%
[7]
  % residual kinase activity: 87%
[8]
  inhibition: 85%
[9]
  % residual kinase activity: 88%
[10]
  inhibition: 110%
[11]
  % residual kinase activity: 81%
[12]
  inhibition: 106%
[13]
  % residual kinase activity: 85%
[14]
  % residual kinase activity: 87%
[15]
  % residual kinase activity: 87%
[16]
  % residual kinase activity: 68%
[17]
  inhibition: 99%
